{
  "source": "patent US10022421B2",
  "about": "“Treatment of primary and metastatic carcinoma” (Spectrum Pharmaceuticals Inc., priority 2012, dated 2018)",
  "key": {"[1]": {"system": "progressive or recurrent carcinoma", "assay": "Open label, single arm, dose escalation study of IRL-1620 in combination with docetaxel: anti-tumor activity", "assay_type": "in vivo, human", "excerpt": "Patient characteristics were as follows.\nCT or MRI scans are used to assess the patient's tumor size. A series of dynamic contrast enhancer pattern MRI scans are used to measure any increases in blood flow induced by IRL 1620."}, "[2]": {"system": "blood flow in tumor and non-tumor regions", "assay": "H2^15O PET Blood Flow scans after IRL-1620", "assay_type": "in vivo, human", "conditions": "patients, PET blood flow scans on Day 8"}, "[3]": {"conditions": "30 patients, IRL-1620 with docetaxel"}, "[4]": {"conditions": "previously docetaxel treated prostate cancer patient"}},
  "note": "Numbered stars: 1 amine (or outer) side, 2 acyl side, 3 side chain; on linkers, the order of the positions; unused ones are H or OH. Ends that are not written are not given here. Suc = O=C(CCC(=O)[*:2])[*:1]",
  "data": [
    {"substance": "N-Succunyl-[Glu^9, Ala^11,15] Endothelin-1 (8-21) (Suc-DEEAVYFAHLDIIW) [IRL-1620, ETB receptor agonist]", "values": [
      {"measurement": "time on study of patients with prolonged clinical benefit", "setting": "[1]; 4 cases, IRL-1620 with docetaxel", "value": "20-74 weeks"},
      {"measurement": "cases of prolonged clinical benefit", "setting": "[1]; [3]", "value": 4, "unit": "cases"},
      {"measurement": "cases of stable disease", "setting": "[1]; [3]", "value": 5, "unit": "cases"},
      {"measurement": "prolonged clinical benefit rate", "setting": "[1]; [3]", "value": 13, "unit": "%"},
      {"measurement": "stable disease (SD) rate", "setting": "[1]; [3]", "value": 16, "unit": "%"},
      {"measurement": "anti-tumor activity", "setting": "[1]; docetaxel-pretreated patients", "value": "Anti-tumor activity was seen"},
      {"measurement": "time to complete regression of lung metastasis", "setting": "[1]; one patient with cholangiocarcinoma", "value": "≤ 3", "unit": "months"},
      {"measurement": "time on study before progressing", "setting": "[1]; one patient with cholangiocarcinoma, complete regression of lung metastasis", "value": 41, "unit": "weeks"},
      {"measurement": "discontinuation of the study due to disease progression", "setting": "[1]; patients, IRL-1620 with docetaxel", "value": 84, "unit": "%"},
      {"measurement": "PSA response", "setting": "[1]; [4]", "value": "PSA response"},
      {"measurement": "change in metastatic prostate cancer", "setting": "[1]; [4]", "value": "measurable decrease"},
      {"measurement": "changes in blood flow", "setting": "[2]", "value": "did not result in any measurable changes"}
    ]}
  ]
}
